Consider 4 compounds from US12391737B2, “Soluble NPY2 receptor agonists” (Boehringer Ingelheim International GmbH, priority 2020, dated 2025).

Where two headings read alike, the source gives them in different places. *1 amine or outer side, *2 acyl side, *3 side chain or, on linkers, in order; H or OH if unused. Where a SMILES comes first, the peptide text is derived from it. Side-chain parts run from the residue outwards. The star is where a group is joined. C18 diacid = O=C(O)CCCCCCCCCCCCCCCCC(=O)*; γGlu = O=C(O)[C@H](CCC(=O)[*:2])N[*:1]; Isovaleryl = CC(C)CC(=O)*; Ahx = NCCCCCC(=O)O

In data set [1] the target is T1, Human Neuropeptide Y2 Receptor (Homo sapiens, UniProt P49146).
T1 construct: purchased CHEMICON HTS066M
T1 sequence (P49146 1-381): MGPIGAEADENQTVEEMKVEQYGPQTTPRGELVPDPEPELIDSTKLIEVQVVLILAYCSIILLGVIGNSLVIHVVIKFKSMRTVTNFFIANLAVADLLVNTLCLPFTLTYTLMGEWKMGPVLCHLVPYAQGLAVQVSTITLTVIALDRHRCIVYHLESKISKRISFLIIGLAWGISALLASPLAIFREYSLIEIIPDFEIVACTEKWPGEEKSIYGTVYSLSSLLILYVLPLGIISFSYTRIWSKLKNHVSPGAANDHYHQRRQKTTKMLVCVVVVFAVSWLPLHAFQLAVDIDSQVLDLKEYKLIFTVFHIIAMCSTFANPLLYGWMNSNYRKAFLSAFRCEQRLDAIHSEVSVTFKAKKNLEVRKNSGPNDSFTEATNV
In words: Radioligand binding competition assay (RLB). Put shortly:
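Receptor membranes, 0.5 μg/well; buffer 50 mM HEPES/5 mM MgCl2/1 mM CaCl2/0.2% ovalbumin, pH 7.4; 2 h RT, shaking. GF/C filtration, cold HEPES/500 mM NaCl wash, scintillation count. IC50 by nonlinear regression.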

Data set [2] concerns the target T2, human NPY5 receptor (hY5R) (Homo sapiens, UniProt Q15761).
T2 sequence (Q15761 1-445): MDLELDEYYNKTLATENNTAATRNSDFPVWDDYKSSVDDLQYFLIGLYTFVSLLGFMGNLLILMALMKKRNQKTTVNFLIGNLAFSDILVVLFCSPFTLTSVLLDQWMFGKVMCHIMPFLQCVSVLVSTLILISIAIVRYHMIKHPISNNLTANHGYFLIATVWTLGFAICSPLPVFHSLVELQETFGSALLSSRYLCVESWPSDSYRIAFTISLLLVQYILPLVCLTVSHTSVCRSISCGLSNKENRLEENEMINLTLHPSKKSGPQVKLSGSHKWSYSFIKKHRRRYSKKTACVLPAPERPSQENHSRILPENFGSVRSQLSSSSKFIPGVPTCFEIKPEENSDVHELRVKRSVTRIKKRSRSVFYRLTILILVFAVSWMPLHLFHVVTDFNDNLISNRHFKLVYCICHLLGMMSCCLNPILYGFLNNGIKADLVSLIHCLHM
Briefly: HTRF cAMP Gi assay, hY5R. (TR-FRET usually uses a lanthanide donor and a delayed reading to cut background.)

The next data set in a line: Solubility determination. The note with it: for Sol6: pH 6; for Sol7: pH 7. A digest of the protocol: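 Shake-flask style: 10 mg/ml peptide (TFA salt), 0.1 M sodium diphosphate pH 6.4/7.0, 600 rpm, 2 h, RT; filter; dilute 1 mg/ml in 50% MeCN; RP-UPLC, 0–100% B over 2 min, 50 °C. Solubility = sample/control area ratio. Final pH recorded.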
For data set [3], the target named is T3, human NPY1 receptor (hY1R) (Homo sapiens, UniProt P25929).
T3 construct: expressed in transfected cells; host or cells: CHO-K1
T3 sequence (P25929 1-384): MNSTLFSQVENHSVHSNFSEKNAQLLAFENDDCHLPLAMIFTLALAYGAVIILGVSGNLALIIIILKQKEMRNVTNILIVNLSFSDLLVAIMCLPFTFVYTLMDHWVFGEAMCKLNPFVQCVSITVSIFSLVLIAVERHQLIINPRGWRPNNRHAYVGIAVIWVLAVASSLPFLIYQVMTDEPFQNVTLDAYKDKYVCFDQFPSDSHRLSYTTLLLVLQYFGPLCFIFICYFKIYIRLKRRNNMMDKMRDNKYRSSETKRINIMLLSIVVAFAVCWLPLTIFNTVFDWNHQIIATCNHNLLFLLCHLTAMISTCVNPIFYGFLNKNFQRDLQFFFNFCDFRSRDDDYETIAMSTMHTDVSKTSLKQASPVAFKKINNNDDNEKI
In words: HTRF cAMP Gi assay, hY1R. In kind it is cell-based. The note with it: CHO-K1 cells.

Data set [4] concerns the target T4, human NPY4 receptor (hY4R) (Homo sapiens, UniProt P50391).
T4 construct: expressed in transfected cells; host or cells: CHO-K1
In words: HTRF cAMP Gi assay, hY4R. Format: cell-based. The conditions noted are these: CHO-K1 cells.
Method: Briefly, the production of intracellular cAMP will generate a competition between unlabeled cAMP and exogenously added d2-cAMP for anti-cAMP antibodies conjugated to cryptate. CHO-K1 cells stably expressing the human NPY1, NPY2, NPY4 and NPY5 receptors were used with the cells brought to life from a frozen stock immediately before assay performance. 2000 cells per well were applied for all four NPY receptor subtype assays. A 384-well format was used applying a total volume of 20 μl using 5 μl cells, 2.5 μl peptide agonist, 2.5 μl forskolin and 5 μl of each of the fluorophores. […] Concentration-response evaluation of compounds was performed with 11 concentrations of agonist peptides (covering 3 decades). EC50 values were calculated by nonlinear regression using sigmoid concentration-response with variable slope.

The mark [5] stands for this setting: Table 3, 125I-PYY(1-36) competition, read-out: Ki.

T4 sequence (P50391 whole entry): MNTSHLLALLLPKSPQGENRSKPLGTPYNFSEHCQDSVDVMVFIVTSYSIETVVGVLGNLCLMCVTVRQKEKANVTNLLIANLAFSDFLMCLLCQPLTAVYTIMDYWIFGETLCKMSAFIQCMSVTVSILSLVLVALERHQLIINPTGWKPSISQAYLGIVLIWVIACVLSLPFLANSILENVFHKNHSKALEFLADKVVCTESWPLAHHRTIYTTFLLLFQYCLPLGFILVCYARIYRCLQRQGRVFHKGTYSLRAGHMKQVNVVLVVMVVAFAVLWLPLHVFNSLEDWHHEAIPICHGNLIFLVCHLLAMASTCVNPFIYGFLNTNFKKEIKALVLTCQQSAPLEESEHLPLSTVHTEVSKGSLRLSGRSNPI

For orientation: Ki means the equilibrium dissociation constant of an inhibitor or competing ligand from its target. As a reminder, the EC50 is the concentration that produces a half-maximal response. A lower EC50 goes with an effect from little substance. For the compound `CC[C@H](C)[C@H](NC(=O)[C@H](Cc1ccc(O)cc1)NC(=O)[C@H](Cc1ccc(O)cc1)NC(=O)[C@H](CCCNC(=N)N)NC(=O)[C@H](CCC(N)=O)NC(=O)[C@@H](NC(=O)[C@H](CCC(=O)O)NC(=O)[C@H](CCC(=O)O)NC(=O)[C@@H]1CCCN1C(=O)[C@H](CO)NC(=O)[C@H](C)NC(=O)[C@H](CC(=O)O)NC(=O)[C@H](C)NC(=O)[C@H](CCC(=O)O)NC(=O)[C@@H]1CCCN1C(=O)[C@H](CCCCNC(=O)CCCCCNC(=O)CC[C@H](NC(=O)CCCCCCCCCCCCCCCCC(=O)O)C(=O)O)NC(=O)[C@H](CCC(=O)O)NC(=O)[C@@H]1CCCN1C(=O)[C@H](C)NC(=O)CC(C)C)[C@@H](C)CC)C(=O)N[C@@H](CO)C(=O)N[C@@H](CC(C)C)C(=O)N[C@@H](CCCNC(=N)N)C(=O)N[C@@H](Cc1c[nH]cn1)C(=O)N[C@@H](Cc1ccc(O)cc1)C(=O)N[C@@H](Cc1ccc(O)cc1)C(=O)N[C@@H](CC(N)=O)C(=O)N[C@@H](Cc1c[nH]c2ccccc12)C(=O)N[C@@H](CC(C)C)C(=O)N[C@H](C(=O)N[C@@H](CCCNC(=N)N)C(=O)N[C@@H](CCC(N)=O)C(=O)N[C@@H](CCCNC(=N)N)C(=O)N[C@@H](Cc1ccc(O)cc1)C(N)=O)[C@@H](C)O` [Compound 11, N{alpha-4}-(3-methylbutanoyl)-N{epsilon-7}-(6-[(4S)-4-carboxy-4-(17-carboxyheptadecanamido)butanamido]hexanoyl)[4A,7K,9E,10A,17I,18Q,22I,28Y,30W,31L]-hPYY(4-36)] (Isovaleryl-APEK([Ahx-γGlu-C18 diacid])PEADASPEEIQRYYISLRHYYNWLTRQRY-NH2), the Ki in data set [1] (setting [5]) came to 1.4 nM. For the same compound, the EC50 in data set [2], in data set [3] and in data set [4] was > 5 µM in each case. Moreover, the “Sol6” value in the data set “Solubility determination” turned out to be 8.9 mg/mL. The “Sol7” value in “Solubility determination” stood at 8.7 mg/mL.

With `CC[C@H](C)[C@H](NC(=O)[C@H](CCC(=O)O)NC(=O)[C@H](CCC(=O)O)NC(=O)[C@@H]1CCCN1C(=O)[C@H](CO)NC(=O)[C@H](C)NC(=O)[C@H](CC(=O)O)NC(=O)[C@H](CCC(=O)O)NC(=O)[C@H](CCC(=O)O)NC(=O)[C@@H]1CCCN1C(=O)[C@H](CCCCNC(=O)CCCCCNC(=O)CC[C@H](NC(=O)CCCCCCCCCCCCCCCCC(=O)O)C(=O)O)NC(=O)[C@H](C)NC(=O)[C@@H]1CCCN1C(=O)[C@H](C)NC(=O)CC(C)C)C(=O)N[C@@H](CCC(N)=O)C(=O)N[C@@H](CCCNC(=N)N)C(=O)N[C@@H](Cc1ccc(O)cc1)C(=O)N[C@@H](Cc1ccc(O)cc1)C(=O)N[C@H](C(=O)N[C@@H](CO)C(=O)N[C@@H](CC(C)C)C(=O)N[C@@H](CCCNC(=N)N)C(=O)N[C@@H](Cc1c[nH]cn1)C(=O)N[C@@H](Cc1ccc(O)cc1)C(=O)N[C@@H](Cc1ccc(O)cc1)C(=O)N[C@@H](CC(N)=O)C(=O)N[C@@H](Cc1c[nH]c2ccccc12)C(=O)N[C@@H](CC(C)C)C(=O)N[C@H](C(=O)N[C@@H](CCCNC(=N)N)C(=O)N[C@@H](CCC(N)=O)C(=O)N[C@@H](CCCNC(=N)N)C(=O)N[C@@H](Cc1ccc(O)cc1)C(N)=O)[C@@H](C)O)C(C)C` [Compound 63, N{alpha-4}-(3-methylbutanoyl)-N{epsilon-7}-(6-[(4S)-4-carboxy-4-(17-carboxyheptadecanamido)butanamido]hexanoyl)-[4A,6A,7K,9E,17I,18Q,22V,28Y,30W,31L]-hPYY(4-36)], the Ki in data set [1] (setting [5]) was found to be 0.93 nM; in data set [1] (Table 8, DMSO stock, read-out: hY2R RLB Ki (nM) DMSO) it was 6.6 nM. Besides, the EC50 in data set [2], in data set [3] and in data set [4] was > 5 µM each time. The “Sol6” value in the data set “Solubility determination” amounted to 10.0 mg/mL. In addition, the “Sol7” value in the data set “Solubility determination” was >10.0 mg/mL.

For the compound `CC[C@H](C)[C@H](NC(=O)[C@H](CCC(=O)O)NC(=O)[C@H](CCC(=O)O)NC(=O)[C@@H]1CCCN1C(=O)[C@@H](NC(=O)[C@H](C)NC(=O)[C@H](CC(=O)O)NC(=O)[C@H](CCC(=O)O)NC(=O)[C@H](CCC(=O)O)NC(=O)[C@@H]1CCCN1C(=O)[C@H](CCCCNC(=O)CCCCCNC(=O)CC[C@H](NC(=O)CCCCCCCCCCCCCCCCC(=O)O)C(=O)O)NC(=O)[C@H](C)NC(=O)[C@@H]1CCCN1C(=O)[C@H](C)NC(=O)CC(C)C)[C@@H](C)O)C(=O)N[C@@H](CCC(N)=O)C(=O)N[C@@H](CCCNC(=N)N)C(=O)N[C@@H](Cc1ccc(O)cc1)C(=O)N[C@@H](Cc1ccc(O)cc1)C(=O)N[C@H](C(=O)N[C@@H](CO)C(=O)N[C@@H](CC(C)C)C(=O)N[C@@H](CCCNC(=N)N)C(=O)N[C@@H](Cc1c[nH]cn1)C(=O)N[C@@H](Cc1ccc(O)cc1)C(=O)N[C@@H](Cc1ccc(O)cc1)C(=O)N[C@@H](CC(N)=O)C(=O)N[C@@H](Cc1c[nH]c2ccccc12)C(=O)N[C@@H](CC(C)C)C(=O)N[C@H](C(=O)N[C@@H](CCCNC(=N)N)C(=O)N[C@@H](CCC(N)=O)C(=O)N[C@@H](CCCNC(=N)N)C(=O)N[C@@H](Cc1ccc(O)cc1)C(N)=O)[C@@H](C)O)C(C)C` [Compound 114, N{alpha-4}-(3-methylbutanoyl)-N{epsilon-7}-(6-[(4S)-4-carboxy-4-(17-carboxyheptadecanamido)butanamido]hexanoyl)-[4A,6A,7K,9E,13T,17I,18Q,22V,28Y,30W,31L]-hPYY(4-36)], the Ki in data set [1] (setting [5]) turned out to be 0.95 nM. Besides, the EC50 in data set [2], in data set [3] and in data set [4] was > 5 µM throughout. In addition, the “Sol6” value in the data set “Solubility determination” is 8.5 mg/mL. Further, the “Sol7” value in “Solubility determination” was determined as 9.2 mg/mL.

Turning to `CC(C)CC(=O)N[C@@H](C)C(=O)N1CCC[C@H]1C(=O)N[C@@H](CCC(=O)O)C(=O)N[C@@H](CCCCNC(=O)CCCCCNC(=O)CC[C@H](NC(=O)CCCCCCCCCCCCCCCCC(=O)O)C(=O)O)C(=O)N1CCC[C@H]1C(=O)N[C@@H](CCC(=O)O)C(=O)N[C@@H](C)C(=O)N[C@@H](CCC(=O)O)C(=O)N[C@@H](C)C(=O)N[C@@H](CO)C(=O)N1CCC[C@H]1C(=O)N[C@@H](CCC(=O)O)C(=O)N[C@@H](CCC(=O)O)C(=O)N[C@@H](CC(C)C)C(=O)N[C@@H](CCC(N)=O)C(=O)N[C@@H](CCCNC(=N)N)C(=O)N[C@@H](Cc1ccc(O)cc1)C(=O)N[C@@H](Cc1ccc(O)cc1)C(=O)N[C@H](C(=O)N[C@@H](CO)C(=O)N[C@@H](CC(C)C)C(=O)N[C@@H](CCCNC(=N)N)C(=O)N[C@@H](Cc1c[nH]cn1)C(=O)N[C@@H](Cc1ccc(O)cc1)C(=O)N[C@@H](Cc1ccc(O)cc1)C(=O)N[C@@H](CC(N)=O)C(=O)N[C@@H](Cc1c[nH]c2ccccc12)C(=O)N[C@@H](CC(C)C)C(=O)N[C@H](C(=O)N[C@@H](CCCNC(=N)N)C(=O)N[C@@H](CCC(N)=O)C(=O)N[C@@H](CCCNC(=N)N)C(=O)N[C@@H](Cc1ccc(O)cc1)C(N)=O)[C@@H](C)O)C(C)C` [Compound 122, N{alpha-4}-(3-methylbutanoyl)-N{epsilon-7}-(6-[(4S)-4-carboxy-4-(17-carboxyheptadecanamido)butanamido]hexanoyl)-[4A,7K,9E,10A,11E,18Q,22V,28Y,30W,31L]-hPYY(4-36)], the EC50 in data set [2], in data set [3] and in data set [4] was > 5 µM in each case. The “Sol6” value in “Solubility determination” worked out at 9.8 mg/mL. Also, the “Sol7” value in “Solubility determination” is 9.9 mg/mL.
